Test results taken from patent publication US11786519B2, “Apoptosis-inducing agents for the treatment of cancer and immune and autoimmune diseases” (AbbVie Inc., priority 2011, dated 2023).

biological target: Bcl-xL (Homo sapiens, UniProt Q07817); test: TR-FRET binding assay, competition with F-Bak for Bcl-xL; conditions: competition with F-Bak probe, GST-Bcl-xL
Experimental: Determination of the utility of compounds having Formula (I) as binders to and inhibitors of anti-apoptotic Bcl-xL proteins was performed using the Time Resolved-Fluorescence Resonance Energy Transfer (TR-FRET) Assay. Tb-anti-GST antibody was purchased from Invitrogen (Catalog No. PV4216).
The measurement of competition of compounds of the invention with F-Bak for a Bcl-2 family protein (Bcl-xL) binding site using a Time Resolved Fluorescence Resonance Energy Transfer (TR-FRET) binding assay:
Test compounds were serially diluted in DMSO starting at 50 µM (2× starting concentration; 10% DMSO) and 10 μL transferred into a 384-well plate.
The samples are then mixed on a shaker for 1 minute then incubated for an additional 2 hours at room temperature. For each assay plate, a probe/antibody and protein/antibody/probe mixture were included as a negative and a positive control, respectively. Fluorescence was measured on the ENVISION plate reader (Perkin Elmer) using a 340/35 nm excitation filter and 520/525 (F-Bak) and 495/510 nm ([…]) emission filters. Dissociation constants (Ki) were determined using Wang's equation (Wang, Z. X. An exact mathematical expression for describing competitive binding of two different ligands to a protein molecule. FEBS Lett. 1995 360:111-114). The TR-FRET assay can be performed in the presence of varying concentrations of human serum (HS) or fetal bovine serum (FBS).

Sequence of Bcl-xL (Q07817 whole entry): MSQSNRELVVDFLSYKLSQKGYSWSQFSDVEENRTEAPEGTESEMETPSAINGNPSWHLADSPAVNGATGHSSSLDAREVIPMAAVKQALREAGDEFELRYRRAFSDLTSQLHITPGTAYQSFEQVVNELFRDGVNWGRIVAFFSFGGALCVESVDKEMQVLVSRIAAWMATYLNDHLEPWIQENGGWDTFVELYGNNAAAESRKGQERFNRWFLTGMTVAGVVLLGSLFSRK

Q: How did the Ki turn out when O=C(Nc1nc2ccccc2s1)c1cccc2c1CN(c1ccc(-c3cnn(CC45CC6CC(CC(C6)C4)C5)c3)c(C(=O)O)n1)CC2 [Example 1, 6-[8-(1,3-benzothiazol-2-ylcarbamoyl)-3,4-dihydroisoquinolin-2(1H)-yl]-3-{1-[tricyclo[3.3.1.1^3,7]dec-1-ylmethyl]-1H-pyrazol-4-yl}pyridine-2-carboxylic acid] was run?
A: < 0.1 nM

Q: With O=C(Nc1nc2ccccc2s1)c1cccc2c1CN(c1ccc(-c3cnn(CC4CCC5(CCC5)CC4)c3)c(C(=O)O)n1)CC2 [Example 4, 6-[8-(1,3-benzothiazol-2-ylcarbamoyl)-3,4-dihydroisoquinolin-2(1H)-yl]-3-[1-(spiro[3.5]non-7-ylmethyl)-1H-pyrazol-4-yl]pyridine-2-carboxylic acid] as the compound, how does the Ki read?
A: 0.5 nM

Q: For O=C(Nc1nc2ccccc2s1)c1cccc2c1CN(c1ccc(-c3cnn(CC45CC6CC(CC(O)(C6)C4)C5)c3)c(C(=O)O)n1)CC2 [Example 6, 6-[8-(1,3-benzothiazol-2-ylcarbamoyl)-3,4-dihydroisoquinolin-2(1H)-yl]-3-(1-{[3-hydroxytricyclo[3.3.1.1^3,7]dec-1-yl]methyl}-1H-pyrazol-4-yl)pyridine-2-carboxylic acid], which Ki is on record?
A: < 0.1 nM

Q: How did the Ki turn out when COC12CC3CC(CC(Cn4cc(-c5ccc(N6CCc7cccc(C(=O)Nc8nc9ccccc9s8)c7C6)nc5C(=O)O)cn4)(C3)C1)C2 [Example 7, 6-[8-(1,3-benzothiazol-2-ylcarbamoyl)-3,4-dihydroisoquinolin-2(1H)-yl]-3-(1-{[3-methoxytricyclo[3.3.1.1^3,7]dec-1-yl]methyl}-1H-pyrazol-4-yl)pyridine-2-carboxylic acid] was run?
A: < 0.1 nM

Q: For COCCOC12CC3CC(CC(Cn4cc(-c5ccc(N6CCc7cccc(C(=O)Nc8nc9ccccc9s8)c7C6)nc5C(=O)O)cn4)(C3)C1)C2 [Example 8, 6-[8-(1,3-benzothiazol-2-ylcarbamoyl)-3,4-dihydroisoquinolin-2(1H)-yl]-3-(1-{[3-(2-methoxyethoxy)tricyclo[3.3.1.1^3,7]dec-1-yl]methyl}-1H-pyrazol-4-yl)pyridine-2-carboxylic acid], which Ki is on record?
A: < 0.1 nM

Q: O=C(Nc1nc2ccccc2s1)c1cccc2c1CN(c1ccc(-c3cnn(CC4C5CC6CC(C5)CC4C6)c3)c(C(=O)O)n1)CC2 (stereo not drawn) [Example 10, 6-[8-(1,3-benzothiazol-2-ylcarbamoyl)-3,4-dihydroisoquinolin-2(1H)-yl]-3-[1-(tricyclo[3.3.1.1^3,7]dec-2-ylmethyl)-1H-pyrazol-4-yl]pyridine-2-carboxylic acid] was tested. Which Ki did it give?
A: < 0.1 nM

Q: O=C(Nc1nc2ccccc2s1)c1cccc2c1CN(c1ccc(-c3cnn(CC45CC6CC(CC(Br)(C6)C4)C5)c3)c(C(=O)O)n1)CC2 [Example 11, 6-[8-(1,3-benzothiazol-2-ylcarbamoyl)-3,4-dihydroisoquinolin-2(1H)-yl]-3-(1-{[3-bromotricyclo[3.3.1.1^3,7]dec-1-yl]methyl}-1H-pyrazol-4-yl)pyridine-2-carboxylic acid] was tested. Which Ki did it give?
A: < 0.1 nM

Q: Which Ki does the source give for CC(C)OC12CC3CC(CC(Cn4cc(-c5ccc(N6CCc7cccc(C(=O)Nc8nc9ccccc9s8)c7C6)nc5C(=O)O)cn4)(C3)C1)C2 [Example 12, 6-[8-(1,3-benzothiazol-2-ylcarbamoyl)-3,4-dihydroisoquinolin-2(1H)-yl]-3-(1-{[3-(propan-2-yloxy)tricyclo[3.3.1.1^3,7]dec-1-yl]methyl}-1H-pyrazol-4-yl)pyridine-2-carboxylic acid] here?
A: < 0.1 nM

Q: How did the Ki turn out when O=C(Nc1nc2ccccc2s1)c1cccc2c1CN(c1ccc(-c3cnn(CC45CC6CC(CC(C6)O4)C5)c3)c(C(=O)O)n1)CC2 [Example 13, 6-[8-(1,3-benzothiazol-2-ylcarbamoyl)-3,4-dihydroisoquinolin-2(1H)-yl]-3-[1-(2-oxatricyclo[3.3.1.1^3,7]dec-1-ylmethyl)-1H-pyrazol-4-yl]pyridine-2-carboxylic acid] was run?
A: < 0.1 nM
